Numbers after ± are expanded uncertainties.
Conditions: Crystal; DTA

Triple point temperature	Structure (SMILES)
832 ± 0.6 K	[Ag][I] [silver iodide]
1074 ± 0.6 K	[Cl-].[Na+] [sodium chloride]

Source: the NIST ThermoML archive (doi:10.1016/j.jct.2015.06.015)
